Reference: patent US12180192B2, “Modulators of THR-β and methods of use thereof” (ALIGOS THERAPEUTICS, INC., priority 2019, dated 2024)

Tests used:
[1] = molecular target: T1, THR beta (Homo sapiens, UniProt P10828); test: HEK293T THR beta/RXR luciferase reporter assay (Assay 2); assay type: cell-based; conditions: for Emax: HEK-293T, read-out: Activity category Assay 2 THRβ (Emax); for EC50: THR-beta, HEK293T reporter assay, read-out: Activity category Assay 2 (EC50, THR-beta agonist)
T1 construct: expressed in transfected cells; host or cells: HEK293T (ATCC CRL-3216)
T1 sequence (P10828 1-461): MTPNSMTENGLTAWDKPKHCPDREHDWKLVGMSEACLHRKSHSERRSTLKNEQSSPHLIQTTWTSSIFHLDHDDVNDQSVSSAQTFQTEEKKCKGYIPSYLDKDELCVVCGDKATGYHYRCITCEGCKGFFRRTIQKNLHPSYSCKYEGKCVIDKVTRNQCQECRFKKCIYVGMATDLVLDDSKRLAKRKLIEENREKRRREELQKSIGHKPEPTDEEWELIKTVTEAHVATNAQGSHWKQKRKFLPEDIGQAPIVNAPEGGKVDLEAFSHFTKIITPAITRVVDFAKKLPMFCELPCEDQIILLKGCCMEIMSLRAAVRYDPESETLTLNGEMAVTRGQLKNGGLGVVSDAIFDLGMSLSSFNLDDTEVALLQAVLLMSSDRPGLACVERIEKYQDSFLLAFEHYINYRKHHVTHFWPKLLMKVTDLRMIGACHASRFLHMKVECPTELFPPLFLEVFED
T1 sequence (P19793 1-462 partner): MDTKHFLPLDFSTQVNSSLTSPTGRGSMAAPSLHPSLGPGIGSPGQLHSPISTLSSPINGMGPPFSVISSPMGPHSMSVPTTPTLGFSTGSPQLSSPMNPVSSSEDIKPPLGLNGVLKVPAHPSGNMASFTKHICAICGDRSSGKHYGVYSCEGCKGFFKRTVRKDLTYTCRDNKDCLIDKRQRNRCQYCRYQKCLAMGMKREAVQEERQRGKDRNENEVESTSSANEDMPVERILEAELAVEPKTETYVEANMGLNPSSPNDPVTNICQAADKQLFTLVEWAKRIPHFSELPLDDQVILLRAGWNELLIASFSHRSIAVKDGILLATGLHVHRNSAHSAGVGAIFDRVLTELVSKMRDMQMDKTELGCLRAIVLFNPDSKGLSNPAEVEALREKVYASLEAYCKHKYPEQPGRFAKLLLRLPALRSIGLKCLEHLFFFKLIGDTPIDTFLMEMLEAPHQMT
Outline: (§1)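 HEK293T cells transiently transfected with TRE-luciferase reporter, RXR, and THR alpha or THR beta plasmid; ten five-fold compound dilutions from DMSO added for 18-24 h. One-Glo luminescence read; percent agonism normalized between negative and positive controls.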

[2] = molecular target: T2, THR alpha (Homo sapiens, UniProt P10827); test: HEK293T THR alpha/RXR luciferase reporter assay (Assay 2); assay type: cell-based; conditions: Assay 2; for Emax: HEK-293T, read-out: Activity category Assay 2 THRα (Emax); for EC50: Table 4, THR-alpha, read-out: Activity category Assay 2 (EC50, THR-alpha agonist activity)
T2 construct: expressed in transfected cells; host or cells: HEK293T (ATCC CRL-3216)
T2 sequence (P10827 1-410 isoform P10827-2): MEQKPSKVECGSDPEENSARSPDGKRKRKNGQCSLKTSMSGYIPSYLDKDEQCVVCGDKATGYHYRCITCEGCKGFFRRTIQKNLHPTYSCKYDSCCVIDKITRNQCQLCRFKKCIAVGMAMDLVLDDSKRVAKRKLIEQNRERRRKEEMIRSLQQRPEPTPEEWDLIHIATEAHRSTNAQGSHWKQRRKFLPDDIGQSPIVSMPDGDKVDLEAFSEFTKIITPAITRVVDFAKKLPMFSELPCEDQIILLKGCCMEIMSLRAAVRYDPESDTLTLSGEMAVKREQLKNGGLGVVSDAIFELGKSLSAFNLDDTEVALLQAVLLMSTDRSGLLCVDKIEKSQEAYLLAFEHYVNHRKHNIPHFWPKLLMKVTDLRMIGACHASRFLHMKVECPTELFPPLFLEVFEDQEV
T2 sequence (P19793 1-462 partner): T1 sequence (P19793 1-462 partner)
Outline: as §1

[3] = molecular target: T3, human thyroid receptor alpha ligand-binding domain (LBD) (Homo sapiens, UniProt P10827); test: TR-FRET thyroid receptor alpha coactivator assay (THR biochemical assay, Assay 1); conditions: for EC50: Table 4, THR-alpha, read-out: Activity category Assay 1 (EC50, THR-alpha agonist activity); for Emax: read-out: Activity category Assay 1 THRα (Emax)
T3 construct: purchased Invitrogen
Outline: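 GST-tagged human TRβ or TRα LBD, 1 nM final (stated for β), with fluorescein-SRC2-2 coactivator peptide (200 nM) and Tb-anti-GST antibody (2 nM). Agonists serially diluted, 1% DMSO final. 1 h incubation at rt in the dark; TR-FRET read as rise in fluorescein and drop in terbium emission.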

Row | Compound | Emax ([1]; Table 5, Assay 2, THRβ) | EC50 [1] | Emax ([2]; Table 5, THRα) | EC50 [2] | EC50 [3] | Emax ([3]; Table 5, THRα) | Activity category Assay 2 THRβ (Emax) ([1]; Table 5, Assay 2, THRβ) | Activity category Assay 2 THRα (Emax) ([2]; Table 5, THRα) | Activity category Assay 1 THRα (Emax) ([3]; Table 5, THRα)
1 | CC(C)c1c[nH]c2ccc(Oc3c(Cl)cc(-n4nc(C#N)c(=O)[nH]c4=O)cc3Cl)cc12 [Compound 1, 2-[3,5-dichloro-4-[(3-isopropyl-1H-indol-5-yl)oxy]-phenyl]-3,5-dioxo-4H-1,2,4-tri-azine-6-carbonitrile] | > 75% | 50 to 250 nM | > 75% | 250 to 1000 nM | < 50 nM | < 50% |  |  | 
2 | CCC(C)c1cc(Oc2c(Cl)cc(-n3nc(N)c(=O)[nH]c3=O)cc2Cl)n[nH]c1=O (centres unmarked) [Compound 39-A] |  | 50 to 250 nM |  | 50 to 250 nM | 250 to 1000 nM |  | A (Emax≥75%) | A (Emax≥75%) | B (Emax≥50%, and <75%)
3 | Cc1ccc(-c2cc(Oc3c(Cl)cc(-n4nc(N)c(=O)[nH]c4=O)cc3Cl)n[nH]c2=O)cc1C [Compound 112] | < 50% | 50 to 250 nM | < 50% | 1000 to 10000 nM | 250 to 1000 nM | < 50% |  |  | 
4 | Cc1cc(-n2nc(C#N)c(=O)[nH]c2=O)cc(C)c1Cc1ccc2[nH]c(=O)cc(C(C)C)c2c1 [Compound 90, 2-(4-((4-Isopropyl-2-oxo-1,2-dihydroquinolin-6-yl)methyl)-3,5-dimethylphenyl)-3,5-dioxo-2,3,4,5-tetrahydro-1,2,4-triazine-6-carbonitrile] | 50 to 75% | > 10000 nM | < 50% | > 10000 nM | 50 to 250 nM | < 50% |  |  | 
5 | CC(C)c1cc(=O)[nH]c2ccc(Oc3c(Cl)cc(-n4nc(N)c(=O)[nH]c4=O)cc3Cl)cc12 [Compound 146, 6-amino-2-[3,5-dichloro-4-[(4-isopropyl-2-oxo-1H-quinolin-6-yl)oxy]phenyl]-1,2,4-triazine-3,5-dione] | 50 to 75% | < 50 nM | < 50% | 50 to 250 nM | 50 to 250 nM | < 50% |  |  | 
6 | Nc1nn(-c2cc(Cl)c(Oc3cc(-c4ccc5c(c4)CCCC5)c(=O)[nH]n3)c(Cl)c2)c(=O)[nH]c1=O [Compound 72, 6-Amino-2-(3,5-dichloro-4-((6-oxo-5-(5,6,7,8-tetrahydro-naphthalen-2-yl)-1,6-dihydro-pyridazin-3-yl)oxy)phenyl)-1,2,4-triazine-3,5(2H,4H)-dione] | 50 to 75% | 50 to 250 nM | < 50% | > 10000 nM | > 25000 nM | < 50% |  |  | 
7 | CC(C)c1c[nH]c2ccc(Oc3c(Cl)cc(-n4nc(C#N)c(=O)[nH]c4=O)cc3Cl)nc12 [Compound 18] | > 75% | 1000 to 10000 nM | 50 to 75% | 1000 to 10000 nM | > 25000 nM | < 50% |  |  | 
8 | CC(C)c1c[nH]c2nnc(Oc3c(Cl)cc(-n4nc(C#N)c(=O)[nH]c4=O)cc3Cl)cc12 [Compound 52, 2-[3,5-dichloro-4-([5-isopropyl-7H-pyrrolo[2,3-c]pyridazin-3-yl]oxy)phenyl]-3,5-dioxo-4H-1,2,4-triazine-6-carbonitrile] | > 75% | > 10000 nM | 50 to 75% | > 10000 nM | 1000 to 25000 nM | < 50% |  |  | 
9 | CC(C)c1cc(Oc2c(Cl)cc(-c3nn(C)c(=O)[nH]c3=O)cc2Cl)n[nH]c1=O [Compound 16, 6-[3,5-dichloro-4-[(5-isopropyl-6-oxo-1H-pyridazin-3-yl)oxy]phenyl]-2-methyl-4H-1,2,4-triazine-3,5-dione] | > 75% | 50 to 250 nM | > 75% | 250 to 1000 nM | 250 to 1000 nM | < 50% |  |  | 
10 | Cc1cc(-n2nc(C#N)c(=O)[nH]c2=O)cc(C)c1Cc1ccc2c(c1)C1(CC1)C(=O)N2 [Compound 148, 2-(3,5-dimethyl-4-((2′-oxospiro[cyclopropane-1,3′-indolin]-5′-yl)methyl)phenyl)-3,5-dioxo-2,3,4,5-tetrahydro-1,2,4-triazine-6-carbonitrile] | 50 to 75% | 1000 to 10000 nM | < 50% | 1000 to 10000 nM | < 50 nM | 50 to 75% |  |  | 
11 | Nc1nn(-c2cc(Cl)c(Oc3cc(-c4ccc5ccccc5c4)c(=O)[nH]n3)c(Cl)c2)c(=O)[nH]c1=O [Compound 67, 6-amino-2-(3,5-dichloro-4-[[5-(naphthalen-2-yl)-6-oxo-1H-pyridazin-3-yl]oxy]phenyl)-4H-1,2,4-triazine-3,5-dione] | 50 to 75% | 50 to 250 nM | < 50% | > 10000 nM | 1000 to 25000 nM | < 50% |  |  | 
12 | Cc1cc(-n2nc(N)c(=O)[nH]c2=O)cc(C)c1Cc1ccc(O)c(-c2ccccc2)n1 [Compound 43, 6-amino-2-[4-[(5-hydroxy-6-phenylpyridin-2-yl)-methyl]-3,5-dimethylphenyl]-4H-1,2,4-triazine-3,5-dione] | > 75% |  | > 75% | < 50 nM | < 50 nM | > 75% |  |  | 
13 | C[C@H]1C[C@H](c2cc(Oc3c(Cl)cc(-n4nc(N)c(=O)[nH]c4=O)cc3Cl)n[nH]c2=O)C1 (single isomer, unassigned) [Compound 86-A, 6-Amino-2-(3,5-dichloro-4-((5-((1r,3r)-3-methylcyclobutyl)-6-oxo-1,6-dihydropyridazin-3-yl)oxy)phenyl)-1,2,4-triazine-3,5(2H,4H)-dione] | > 75% | 50 to 250 nM | 50 to 75% | 250 to 1000 nM | 250 to 1000 nM | < 50% |  |  | 
14 | Cc1cc(-n2ncc(=O)[nH]c2=O)cc(C)c1Cc1ccc2[nH]cc(C(C)C)c2n1 [Compound 54, 2-[4-[(3-isopropyl-1H-pyrrolo[3,2-b]pyridine-5-yl)methyl]-3,5-dimethyl-phenyl]-1,2,4-triazine-3,5-dione] | > 75% | < 50 nM | 50 to 75% | < 50 nM | < 50 nM | < 50% |  |  | 
15 | Nc1nn(-c2cc(Cl)c(Oc3cc(C45CCC(C4)C5)c(=O)[nH]n3)c(Cl)c2)c(=O)[nH]c1=O [Compound 101] | 50 to 75% | 50 to 250 nM | < 50% | 50 to 250 nM | 250 to 1000 nM | < 50% |  |  | 
16 | Nc1nn(-c2cc(Cl)c(Oc3cc(C4CC5(CCC5)C4)c(=O)[nH]n3)c(Cl)c2)c(=O)[nH]c1=O [Compound 94] | 50 to 75% | 50 to 250 nM | < 50% | 1000 to 10000 nM | 250 to 1000 nM | < 50% |  |  | 
17 | Cc1cc(-n2nc(N)c(=O)[nH]c2=O)cc(C)c1Cc1ccc2[nH]cc(C(C)C)c2n1 [Compound 55, 6-amino-2-[4-[(3-isopropyl-1H-pyrrolo[3,2-b]pyridin-5-yl)methyl]-3,5-dimethyl-phenyl]-1,2,4-triazine-3,5-dione] | > 75% | < 50 nM | > 75% | 50 to 250 nM | < 50 nM | 50 to 75% |  |  | 
